What was measured:
[1] = tested on: SETVI; assay: Post-emergence herbicidal action against SETVI; type: in vivo, Setaria viridis; conditions: 80 g/ha, visual assessment about 3 weeks after treatment vs untreated controls
Outline: (§1)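 Weeds and crops grown in sandy loam in the greenhouse, treated post-emergence at the one-leaf stage (2–3 weeks after sowing). WP or EC formulations sprayed as aqueous suspension/emulsion at 600–800 l/ha water with 0.2% wetting agent. Visual % activity scored after about 3 weeks versus untreated controls (100% = dead, 0% = like control).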

[2] = tested on: ECHCG; assay: Post-emergence herbicidal action against ECHCG; type: in vivo, Echinochloa crus-galli; conditions: 80 g/ha, visual assessment about 3 weeks after treatment vs untreated controls
Outline: as §1

[3] = tested on: AVEFA; assay: Post-emergence herbicidal action against AVEFA; type: in vivo, Avena fatua; conditions: 80 g/ha, visual assessment after about 3 weeks
Outline: as §1

[4] = tested on: DIGSA; assay: Post-emergence herbicidal action against DIGSA; type: in vivo, Digitaria sanguinalis; conditions: 80 g/ha, visual assessment about 3 weeks after treatment vs untreated controls
Outline: as §1

[5] = tested on: HORMU; assay: Post-emergence herbicidal action against HORMU; type: in vivo, Hordeum murinum; conditions: 80 g/ha, visual assessment about 3 weeks after treatment vs untreated controls
Method: Seeds of monocotyledonous and dicotyledonous weed and crop plants are laid out in sandy loam soil in wood-fiber pots, covered with soil and cultivated in a greenhouse under good growth conditions. 2 to 3 weeks after sowing, the test plants are treated at the one-leaf stage. The compounds of the invention, formulated in the form of wettable powders (WP) or as emulsion concentrates (EC), are then sprayed onto the green parts of the plants as aqueous suspension or emulsion at a water application rate equating to 600 to 800 l/ha with addition of 0.2% wetting agent. After the test plants have been left to stand in the greenhouse under optimal growth conditions for about 3 weeks, the action of the preparations is assessed visually in comparison to untreated controls (herbicidal action in percent (%): 100% activity=the plants have died, 0% activity=like control plants).

[6] = tested on: LOLRI; assay: Post-emergence herbicidal action against LOLRI; type: in vivo, Lolium rigidum; conditions: 80 g/ha, visual assessment about 3 weeks after treatment vs untreated controls
Outline: as §1

[7] = tested on: ALOMY; assay: Post-emergence herbicidal action against ALOMY; type: in vivo, Alopecurus myosuroides; conditions: 80 g/ha, visual assessment after about 3 weeks
Outline: as §1

[8] = tested on: ABUTH; assay: Post-emergence herbicidal action against ABUTH; type: in vivo, Abutylon threophrasti; conditions: 80 g/ha, visual assessment about 3 weeks after treatment vs untreated controls
Outline: as §1

Row | Structure (SMILES) | Post-emergence action against SETVI in % [1] [%] | Post-emergence action against ECHCG in % [2] [%] | Post-emergence action against AVEFA in % [3] [%] | Post-emergence action against DIGSA in % [4] [%] | Post-emergence action against HORMU in % [5] [%] | Post-emergence action against LOLRI in % [6] [%] | Post-emergence action against ALOMY in % [7] [%] | Post-emergence action against ABUTH in % [8] [%]
1 | CC#Cc1cc(Cl)c(C2=C(O)C3(CCC(COC)C3)NC2=O)c(CC)c1 (stereo not shown) [Example I-04] | 100 | 100 | 100 | 100 | 100 | 100 | 100 | –
2 | CC#Cc1cc(C)c(C2=C(O)C3(CCC(COC)C3)NC2=O)c(Cl)c1 (stereo not shown) [Example I-06] | 100 | 100 | 100 | 100 | 100 | 100 | 100 | 80
3 | CC#Cc1cc(Cl)c(C2=C(O)C3(CCC(COCC)C3)NC2=O)c(OC)c1 (stereo not shown) [Example I-07] | 100 | 100 | 100 | 100 | 100 | 100 | 100 | –
4 | CC#Cc1cc(C)c(C2=C(O)C3(CCC(COCC)C3)NC2=O)c(Cl)c1 (stereo not shown) [Example I-09] | 100 | 100 | 100 | 100 | 100 | 100 | 100 | –
5 | C#Cc1cc(Cl)c(C2=C(O)C3(CCC(COC)C3)NC2=O)c(OC)c1 (stereo not shown) [Example I-13] | 100 | 100 | 90 | 100 | 90 | 90 | 100 | –
6 | C#Cc1cc(Cl)c(C2=C(O)C3(CCC(COCC)C3)NC2=O)c(OC)c1 (stereo not shown) [Example I-14] | 90 | 90 | 90 | 90 | 90 | 90 | 90 | –
7 | CC#Cc1cc(Cl)c(C2=C(O)C3(CCC(COCC)C3)NC2=O)c(CC)c1 (stereo not shown) [Example I-15] | 100 | 100 | 100 | 100 | 100 | 100 | 100 | –
8 | CC#Cc1cc(Cl)c(C2=C(O)C3(CCC(COC)C3)NC2=O)c(CC)c1 (stereo not shown) [Example I-16] | 100 | 100 | 100 | 100 | 100 | 100 | 100 | –
9 | C#Cc1cc(Cl)c(C2=C(OC(=O)OCC)C3(CCC(COC)C3)NC2=O)c(OC)c1 (stereo not shown) [Example P-02] | 100 | 100 | 100 | 100 | 100 | 100 | 100 | –
10 | CC#Cc1cc(Cl)c(C2=C(OC(=O)OCC)C3(CCC(COC)C3)NC2=O)c(CC)c1 (stereo not shown) [Example P-06] | 100 | 100 | 100 | 100 | 100 | 100 | 100 | –
11 | CC#Cc1cc(Cl)c(C2=C(OC(=O)C(C)C)C3(CCC(COCC)C3)NC2=O)c(CC)c1 (stereo not shown) [Example P-07] | 100 | 100 | 100 | 100 | 100 | 100 | 100 | –
12 | CC#Cc1cc(C)c(C2=C(OC(=O)OCC)C3(CCC(COCC)C3)NC2=O)c(Cl)c1 (stereo not shown) [Example P-09] | 100 | 100 | 100 | 100 | 100 | 100 | 100 | –
13 | CC#Cc1cc(Cl)c(C2=C(OC(=O)C(C)C)C3(CCC(COCC)C3)NC2=O)c(CC)c1 (stereo not shown) [Example P-12] | 100 | 100 | 100 | 100 | 100 | 100 | 100 | –
14 | CC#Cc1cc(Cl)c(C2=C(OC(=O)OCC)C3(CCC(COC)C3)NC2=O)c(CC)c1 (stereo not shown) [Example P-15] | 100 | 100 | 100 | 100 | 100 | 100 | 100 | –
15 | C#Cc1cc(Cl)c(C2=C(OC(=O)OCC)C3(CCC(COC)C3)NC2=O)c(OC)c1 (stereo not shown) [Example P-19] | 100 | 100 | 100 | 90 | 100 | 100 | 80 | –
16 | CC#Cc1cc(Cl)c(C2=C(OC(=O)OCC)C3(CCC(COCC)C3)NC2=O)c(CC)c1 (stereo not shown) [Example P-20] | 100 | 100 | 100 | 100 | 100 | 100 | 100 | –
17 | CC#Cc1cc(Cl)c(C2=C(OC(=O)C(C)C)C3(CCC(COC)C3)NC2=O)c(CC)c1 (stereo not shown) [Example P-22] | 100 | 100 | 100 | 100 | 100 | 100 | 100 | –
18 | CC#Cc1cc(C)c(C2=C(OC(=O)OCC)C3(CCC(COC)C3)NC2=O)c(Cl)c1 (stereo not shown) [Example P-24] | 100 | 100 | 100 | 100 | 100 | 100 | 100 | –
